Where a name gives a salt, the structure may show the parent alone. Read-outs that look alike come from different tables or passages of the source.
What was measured:
[1] = test system: bacteria (systemic infection); assay: In vivo efficacy against systemic infection, overall conclusions; set-up: species or system male mice (ddY); settings: Table II
Description: (§1) The contents in the vials (No. A and No. C) prepared in Example 17 were each dissolved in deionized water, and injections having various concentrations were prepared.
(§2) Compounds A, B, F, G, H and M were dissolved in deionized water. Compounds C, D, E and J were dissolved in an aqueous solution of sodium carbonate (pH 8-9) to prepare injections of various concentrations.
(§3) Each of the injections was administered to mice under the conditions described below, and the median effective doses (ED50) obtained are shown in Table II.

in vivo = settings: mouse
[2] = test system: Pseudomonas aeruginosa No. 12; assay: In vivo efficacy against systemic infection; set-up: species or system male mice (ddY); settings: NO.12, in Mus musculus, twice, about 5 minutes and 6 hours after infection, read-out: ED50 (median effective dose)
Description: as §1
(§4) Compounds A, B, F, G, H and M were dissolved in deionized water.
(§5) Mice: male mice (ddY) weighting about 20g
Pseudomonas aeruginosa No. 12;
(§6) Intraperitoneal infection with 50 to
(§7) of a bacterial suspension in tryptosoy
(§8) twice, about 5 minutes and 6 hours after
Pseudomonas aeruginosa No. 12
(§9) calculated in accordance with the Behrens-Kaerber method [Arch. Exp. Path

[3] = test system: Staphylococcus aureus No. 50774; assay: In vivo efficacy against systemic infection; set-up: species or system male mice (ddY); settings: NO.50774, in Mus musculus, 336 h, sc, twice, about 5 minutes and 6 hours after infection, read-out: ED50 (median effective dose)
Description: as §1, §2, §3, §5
Staphylococcus aureus No. 50774;
Intravenous infection with 50 to 100
LD50 (about 5 × 10^8cells/mouse) of a
bacterial suspension in saline.
as §8
Staphylococcus aureus No. 50774 14 days
The numerals in the table show ED50 (mg/kg). ED50 values were
as §9

[4] = test system: Klebsiella pneumoniae No. 13; assay: In vitro antibacterial activity (MIC); type: cell-based; settings: Klebsiella pneumoniae No. 13; read-out: minimum inhibitory concentration (MIC)
Text: (§10) In vitro antibacterial activity against 20 strains of bacteria
(§11) The numerals in the table show minimum inhibitory concentrations (MIC)

[5] = test system: Salmonella enteritidis No. 1891; assay: In vitro antibacterial activity (MIC); type: cell-based; settings: Salmonella enterica; Salmonella enteritidis No. 1891; read-out: minimum inhibitory concentration (MIC)
Text: as §10, §11

[6] = test system: Pseudomonas aeruginosa No.12; assay: In vitro antibacterial activity (MIC); type: cell-based
Text: as §10, §11

[7] = test system: Pseudomonas aeruginosa Tsuchijima; assay: In vitro antibacterial activity (MIC); type: cell-based; settings: Pseudomonas aeruginosa Tsuchijima; read-out: minimum inhibitory concentration (MIC)
Text: as §10, §11

[8] = test system: Serratia mercescens IFO 3736; assay: In vitro antibacterial activity (MIC); type: cell-based; settings: IFO3736; Serratia mercescens IFO 3736; read-out: minimum inhibitory concentration (MIC)
Text: as §10, §11

[9] = test system: Enterobacter cloacae P-2540; assay: In vitro antibacterial activity (MIC); type: cell-based
Text: as §10, §11

[10] = test system: Streptococcus pyogenes 65A; assay: In vitro antibacterial activity (MIC); type: cell-based; settings: Streptococcus pyogenes 65A; read-out: minimum inhibitory concentration (MIC)
Text: as §10, §11

[11] = test system: Salmonella typhimurium S-9; assay: In vitro antibacterial activity (MIC); type: cell-based; settings: Salmonella enterica; Salmonella typhimurium S-9; read-out: minimum inhibitory concentration (MIC)
Text: as §10, §11

Proteus mirabilis P-2381 = assay: In vitro antibacterial activity (MIC); type: cell-based
Text: as §10, §11

[12] = test system: Escherichia coli NIHJ JC-2; assay: In vitro antibacterial activity (MIC); type: cell-based
Text: as §10, §11

[13] = test system: Staphylococcus aureus No. 50774; assay: In vitro antibacterial activity (MIC); type: cell-based; settings: Staphylococcus aureus No. 50774; read-out: minimum inhibitory concentration (MIC)
Text: as §10, §11

[14] = test system: Shigella flexneri 4a P-330; assay: In vitro antibacterial activity (MIC); type: cell-based; settings: 4AP330, read-out: minimum inhibitory concentration (MIC)
Text: as §10, §11

[15] = test system: Streptococcus faecalis P-2473; assay: In vitro antibacterial activity (MIC); type: cell-based; settings: Enterococcus faecalis
Text: as §10, §11

[16] = test system: Corynebacterium pyogenes C-21; assay: In vitro antibacterial activity (MIC); type: cell-based; settings: Rhodococcus (subgen. Prescottella) equi, C21; Corynebacterium pyogenes C-21; read-out: minimum inhibitory concentration (MIC)
Text: as §10, §11

Proteus morganii Kono = assay: In vitro antibacterial activity (MIC); type: cell-based; settings: Morganella morganii, read-out: minimum inhibitory concentration (MIC)
Text: as §10, §11

Shigella flexneri 2a = assay: In vitro antibacterial activity (MIC); type: cell-based; settings: read-out: minimum inhibitory concentration (MIC)
Text: as §10, §11

Escherichia coli P-140a = assay: In vitro antibacterial activity (MIC); type: cell-based
Text: as §10, §11

Escherichia coli P-5101 [17] = assay: In vitro antibacterial activity (MIC); type: cell-based; settings: Escherichia coli, P5101, read-out: minimum inhibitory concentration (MIC)
Text: as §10, §11

[18] = test system: Staphylococcus aureus 209P JC-1; assay: In vitro antibacterial activity (MIC); type: cell-based; settings: Staphylococcus aureus 209P JC-1; read-out: minimum inhibitory concentration (MIC)
Text: as §10, §11

Proteus rettgeri P-2503 = assay: In vitro antibacterial activity (MIC); type: cell-based; settings: Providencia rettgeri
Text: as §10, §11

Escherichia coli P-5101 [19] = assay: In vivo efficacy against systemic infection; set-up: species or system male mice (ddY); settings: P5101, in Mus musculus, 168 h, twice, about 5 minutes and 6 hours after infection, read-out: ED50 (median effective dose)
Description: as §1, §4, §5, §6, §7, §8, §9

| SMILES | antibacterial activity in vivo (in words) [1] | LD50 at 168 h (in vivo; iv) [mg/kg] | selectivity ratio (in vivo; iv) | LD50 at 168 h (in vivo; sc) [mg/kg] | selectivity ratio (in vivo; sc) | ED50 ([2]; iv) [mg/kg] | ED50 ([2]; sc) [mg/kg] | ED50 [3] [mg/kg] | MIC [4] [µg/mL] | MIC [5] [µg/mL] | MIC [7] [µg/mL] | MIC [8] [µg/mL] | MIC [10] [µg/mL] | MIC [11] [µg/mL] | MIC [13] [µg/mL] | MIC [14] [µg/mL] | MIC [16] [µg/mL] | MIC (Shigella flexneri 2a) [µg/mL] | minimum inhibitory concentration (MIC) (Escherichia coli P-140a) [µg/mL] | MIC (Escherichia coli P-5101 [17]) [µg/mL] | other results |
| --- | --- | --- | --- | --- | --- | --- | --- | --- | --- | --- | --- | --- | --- | --- | --- | --- | --- | --- | --- | --- | --- |
| CN1CCN(c2ncc3c(=O)c(C(=O)N[C@@H](C(=O)N[C@@H]4C(=O)N5[C@@H]4SC(C)(C)[C@@H]5C(=O)O)c4ccc(O)cc4)c[nH]c3n2)CC1 [Compound A, D-α-[5,8-Dihydro-2-(4-methyl-1-piperazinyl)-5-oxopyrido[2,3-d]pyrimidine-6-carboxamido]-p-hydroxybenzylpenicillin sodium salt] | almost comparable | 1120 | 432 | 1500 | 417 | 2.6 | 3.6 | 3.7 | 6.25 | 0.2 | 0.39 | 3.13 | < 0.1 | 0.2 | 3.13 | 0.78 | 0.78 | 0.78 | 6.25 | 0.39 | MIC ([6]; Pseudomonas aeruginosa No.12, read-out: minimum inhibitory concentration (MIC)): 1.56 µg/mL; MIC ([9]; P2540, Enterobacter cloacae P-2540, read-out: minimum inhibitory concentration (MIC)): 3.13 µg/mL; MIC (Proteus mirabilis P-2381; P2381, Proteus mirabilis P-2381, read-out: minimum inhibitory concentration (MIC)): 3.13 µg/mL; MIC ([12]; NIHJJC2, Escherichia coli NIHJ JC-2, read-out: minimum inhibitory concentration (MIC)): 0.78 µg/mL; MIC ([15]; P2473, read-out: minimum inhibitory concentration (MIC)): 6.25 µg/mL; MIC (Proteus morganii Kono; Proteus morganii Kono): 3.13 µg/mL; MIC [18]: 1.56 µg/mL; MIC (Proteus rettgeri P-2503; P2503, Proteus rettgeri P-2503, read-out: minimum inhibitory concentration (MIC)): 6.25 µg/mL; ED50 (Escherichia coli P-5101 [19]; iv): 0.7 mg/kg; ED50 (Escherichia coli P-5101 [19]; sc): 1 mg/kg |
| CC1(C)S[C@@H]2[C@H](NC(=O)[C@H](NC(=O)c3c[nH]c4nc(N)ncc4c3=O)c3ccc(O)cc3)C(=O)N2[C@H]1C(=O)O [Compound G, D-α-(5,8-Dihydro-2-amino-5-oxopyrido[2,3-d]pyrimidine-6-carboxamido)-p-hydroxybenzylpenicillin sodium salt] | almost comparable | 1000 | 256 | 1000 | 227 | 3.9 | 4.4 | ~0.8 | 25 | 0.78 | 0.39 | 12.5 | < 0.1 | 1.56 | 0.39 | 6.25 | 0.78 | 3.13 | 50 | 3.13 | MIC ([6]; Pseudomonas aeruginosa, NO.12, read-out: minimum inhibitory concentration (MIC)): 3.13 µg/mL; MIC ([9]; Enterobacter cloacae, P2540, read-out: minimum inhibitory concentration (MIC)): 6.25 µg/mL; MIC (Proteus mirabilis P-2381; Proteus mirabilis, P2381, read-out: minimum inhibitory concentration (MIC)): 3.13 µg/mL; MIC ([12]; Escherichia coli, NIHJJC2, read-out: minimum inhibitory concentration (MIC)): 6.25 µg/mL; MIC ([15]; P2473, Streptococcus faecalis P-2473, read-out: minimum inhibitory concentration (MIC)): 1.56 µg/mL; MIC (Proteus morganii Kono): 6.25 µg/mL; MIC [18]: 0.39 µg/mL; MIC (Proteus rettgeri P-2503; P2503, read-out: minimum inhibitory concentration (MIC)): 6.25 µg/mL; ED50 (Escherichia coli P-5101 [19]; iv): 8.8 mg/kg; ED50 (Escherichia coli P-5101 [19]; sc): 11.5 mg/kg |

Source: patent US4103011A, “Novel penicillin compounds and process for preparation thereof” (priority 1976, dated 1978)
